Test results published in patent publication US20240287048A1, “SUBSTITUTED ACYL SULFONAMIDES FOR TREATING CANCER” (The Broad Institute, Inc., priority 2020, published 2024).

Tests used:
[1] = system: Salmonella tester strain TA100; test: Bacterial reverse gene mutation test Ames MPF Penta I, TA100; type: cell-based
From the text: (§1) The employed commercial assay Ames MPF Penta I comprises the histidine auxotrophic Salmonella tester strains TA98, TA100, TA1535, TA1537 and two tryptophan auxotrophic tester strains E. coli wp2 (E. coli wp2 [pKM101] and E. coli wp2 uvrA, combined exposure). These strains meet the requirements of the OECD guideline 471 for testing chemicals.
(§2) Bacterial strains were exposed to various concentrations of the test compounds in a histidine (His) or tryptophane (Trp) deficient medium. As recommended by ICH S2(R1) guideline, the test was conducted in two assay conditions, with and without addition of microsomal enzymes (S9 mix), taking the potential formation of DNA reactive metabolites via xenobiotic biotransformation into account.
(§3) The potential of the test compound to induce gene mutations is assessed by comparing the control with the test compounds treated bacterial cultures.

[2] = system: ESR1 transcription in MVLN cells; test: Repression of ESR1 transcription, MVLN luciferase reporter assay; type: cell-based; conditions: Homo sapiens, luciferase signal after 24 h, read-out: MVLN reporter assay, IC50[M] (arithmetic mean)
Method in brief: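 MVLN cells stably carry an ER-responsive vitellogenin A2 element driving luciferase. After 24 h of compound treatment, luciferase was read in lysate as the measure of ERα transcription. Alamar Blue fluorescence (530/590 nm, 2 h) was read first to control for cell loss; samples were run in duplicate.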

[3] = system: LCLC-97TM1 cells; test: Proliferation assay in LCLC-97TM1 cells; type: cell-based; conditions: Homo sapiens, 144 h, Alamar Blue, read-out: LCLC97TM1 proliferation assay, EC50[M] (arithmetic mean)
Method in brief: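 LCLC-97TM1 large-cell lung carcinoma cells were seeded at 6000 per well in RPMI 1640 with 2.5% FBS and exposed to compound for 144 h at 37 °C, 5% CO2, in triplicate. Viability was read by Alamar Blue fluorescence at 590 nm after 2 h.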

[4] = system: Salmonella tester strain TA1537; test: Bacterial reverse gene mutation test Ames MPF Penta I, TA1537; type: cell-based
From the text: as §1, §2, §3

[5] = system: Salmonella tester strain TA1535; test: Bacterial reverse gene mutation test Ames MPF Penta I, TA1535; type: cell-based
From the text: as §1, §2, §3

[6] = target: T1, KAT6A (Homo sapiens, UniProt Q92794); test: Kat6a activity assay (TR-FRET, acetylation of biotinylated histone H4 peptide); type: biochemical; conditions: recombinant human His-tagged Kat6a (amino acids 194-810), 60 mins at 22° C., read-out: KAT6A-DPF/HAT domain IC50 [mol/l] (arithmetic mean)
T1 construct: Recombinant human His-tagged Kat6a protein (amino acids 194-810); His; made in house; host or cells: Baculovirus-infected Sf9 insect cells
Method in brief: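 His-tagged human Kat6a (aa 194-810, Sf9-expressed) with compound (0.01-20 μM) for 60 min at 22° C., pH 8 Tris buffer, 220 nM biotinylated H4 peptide (aa 1-24) and 600 nM acetyl-CoA. Acetyl-K8 detected by Eu-antibody/SA-XL665 TR-FRET (665/620 nm ratio); IC50 from 4-parameter fit.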

T1 sequence (Q92794 194-810): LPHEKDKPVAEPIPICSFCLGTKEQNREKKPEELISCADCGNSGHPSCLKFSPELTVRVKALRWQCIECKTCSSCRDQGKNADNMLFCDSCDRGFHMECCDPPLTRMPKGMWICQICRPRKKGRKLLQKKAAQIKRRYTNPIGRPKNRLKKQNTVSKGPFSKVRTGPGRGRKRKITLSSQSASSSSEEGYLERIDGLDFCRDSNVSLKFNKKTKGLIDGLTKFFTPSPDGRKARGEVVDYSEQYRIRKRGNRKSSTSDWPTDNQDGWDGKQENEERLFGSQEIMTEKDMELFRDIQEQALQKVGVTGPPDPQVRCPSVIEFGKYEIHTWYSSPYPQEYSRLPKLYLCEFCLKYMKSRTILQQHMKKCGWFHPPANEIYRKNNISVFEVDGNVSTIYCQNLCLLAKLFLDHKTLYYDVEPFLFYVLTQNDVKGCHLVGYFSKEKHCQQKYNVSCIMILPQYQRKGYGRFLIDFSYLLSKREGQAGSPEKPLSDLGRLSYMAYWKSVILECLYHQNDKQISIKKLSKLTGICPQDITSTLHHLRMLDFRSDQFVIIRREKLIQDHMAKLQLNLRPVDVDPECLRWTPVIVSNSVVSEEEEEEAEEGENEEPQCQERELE

| Compound | Result of the bacterial reverse gene mutation test Ames MPF Penta I, TA100 ([1]; with addition of S9 mix) | Result of the bacterial reverse gene mutation test Ames MPF Penta I, TA100 ([1]; without addition of S9 mix) | IC50 [2] [M] | EC50 [3] [M] | Result of the bacterial reverse gene mutation test Ames MPF Penta I, TA1537 ([4]; with addition of S9 mix) | Result of the bacterial reverse gene mutation test Ames MPF Penta I, TA1537 ([4]; without addition of S9 mix) | Result of the bacterial reverse gene mutation test Ames MPF Penta I, TA1535 ([5]; with addition of S9 mix) | Result of the bacterial reverse gene mutation test Ames MPF Penta I, TA1535 ([5]; without addition of S9 mix) | IC50 [6] [µM] |
| --- | --- | --- | --- | --- | --- | --- | --- | --- | --- |
| CCOc1ccccc1S(=O)(=O)NC(=O)c1cc2ccc(C(C)C)cc2o1 [Example 55, N-(2-Ethoxybenzenesulfonyl)-6-(propan-2-yl)-1-benzofuran-2-carboxamide] | negative | negative | 1.34e-06 | > 2e-05 | negative | negative | negative | negative | 0.596 |
| O=C(NS(=O)(=O)c1ccccc1-c1ccccc1)c1cc2ccc(C3CC3)cc2o1 [Example 16, N-([1,1′-biphenyl]-2-sulfonyl)-6-cyclopropyl-1-benzofuran-2-carboxamide] | negative | negative | 1.02e-06 | 1.14e-05 | negative | negative | negative | negative | 0.0624 |
